Values joined by “and” are separate entries in the source; they are usually repeats but may differ in a detail not shown here. Identical values can stand only once.
Experiments:
[1] = system: MitoTox Reporter cells (MDA-MB-231 expressing Laconic); experiment: Pilot screening of 13 compounds with MitoTox Reporter cells, multiplate reader; assay type: cell-based; conditions: for ΔR% (lactate accumulation): average of 4 replicate wells, Fig 9 legend 30 minutes, 37°C
Description: (§1) MitoTox reporter cell line was cultured in Leibowitz media (Gibco) supplemented with 10% of fetal bovine serum (FBS) at 37°C at atmospheric CO2 levels in a 100 mm petri dish. Once cells reached 100% confluency, they were trypsinized using 5% trypsin (Gibco) and washed in PBS. Viability was determine using trypan blue staining and 10,000 cells were seeded into each well of a 96 well plate. Experiments in 96 well format were performed once cells reached 100% confluency after 6 days, during the incubation media was not replaced. All the plates with signal-to-noise ration below 1.3 for monomeric Teal Fluorescent Protein (mTFP) and Venus channels were discarded. Background signal was determined with KRH buffer without cells. Experiments consisted in washing out the culture media using KRH HEPES buffer containing (mM) 136 NaCl, 3 KCl, 1.25 CaCl2, 1.25 MgCl2, 10 HEPES/Tris and pH 7.2 at 37°C with 300 mOsm. Then 200 μl of KRH HEPES buffer without any carbon sources was added to each well and the baseline was measured (RMIN), then 100 μl of buffer was replaced with mitochondrial toxicant/controls and signal was measured to obtain a stimulated response (RMAX). In experiments were pCMBS was used to block lactate exit, the inhibitor was added simultaneously with the mitochondrial toxicants. Data was collected in triplicated after 5, 10, 30, and 60 minutes of incubation. All the experiments in 96 well plates were performed in an EnVision® multiplate reader (PerkinElmer). Each well was excited at 430 nm and the intensity of mTFP and Venus fluorescence emission were recorded at 485 nm and 528 nm, using a set of filters.
(§2) Where R(mTFP/Venus) min corresponded to the minimal change of mTFP/Venus ratio during the single-cell experiments. Results in 96 well plates experiments were expressed by the ΔR%. This parameter was obtained from the difference between the RMAX and RMIN from the same well (before-after experiment) as follow: ΔR%=(R(mTFP/Venus)max−R(mTFP/Venus)min/R(mTFP/Venus)min)x100
Multiple comparisons versus control groups (Holm-Sidak method), Overall significance level P < 0,05.
The capability of the assay to identify previously described toxic drugs was explored through a pilot screening assay. We selected 13 compounds from a variety of therapeutic classes to perform a pilot screening assay using MitoTox Reporter cells and a standard multiplate reader. […] To perform the assays, we prepared master stocks for each compound in 0.2% DMSO. Assays were performed with compounds at final concentrations of 1, 5, and 10 μM and the response of MitoTox Reporter cells were measured at 5, 10, 30, and 60 minutes. […] As a negative control we selected a compound with no reported side-effects.

[2] = system: HepG2 cells; parameters: method as in PMID 22689143; conditions: Seahorse technology, read-out: Concentration required to change the OCR and ECAR by 50%; cited from earlier work
[3] = system: ATP; conditions: read-out: IC50, ATP depletion; cited from earlier work
[4] = system: mitochondrial membrane potential (MMP); conditions: treatment time 6 hours; ref Li et al., 2014 [50]; read-out: IC50, MMP; cited from earlier work
[5] = system: primary culture of astrocytes from the mouse cortex expressing Laconic; experiment: Single-cell lactate imaging (Laconic) in primary culture of cortical astrocytes; assay type: cell-based
Description: Animals used for primary cultures were mixed F1 male mice (C57BL/6J × CBA/J), kept in an animal room under SPF conditions at a room temperature of 20 ± 2°C, in a 12/12-h light/dark cycle and with free access to water and food. Mixed cortical cultures of neuronal and glia cells (1 –to 3-day-old neonates) was cultured in Neurobasal medium (Gibco) supplemented with 5 mM glucose and B27. Cells were seeded on petri dishes and superfused with KRH HEPES pH 7.4. The lactate imaging experiments with single-cell resolution were performed using cultured astrocytes at 11–14 days post-dissection. Real time experiments were performed with KRH HEPES bathing solution containing (in mM) 136 NaCl, 3 KCl, 1.25 CaCl2, 1.25 MgCl2, 10 HEPES/Tris and pH 7.2 at 36°C with 300 mOsm, without carbon sources for mitochondrial toxicant experiments and 2 mM glucose and 1 mM lactate for Warburg index determination. Experiments were performed in upright Olympus FV1000 confocal microscope equipped with a 20X water-immersion objective (numerical aperture, 1.0) and a 440 nm solid-state laser.
To plot the data, we used a ratio between mTFP and Venus channels. This ratio is proportional to lactate levels, since its binding to the sensor produced a decrease in FRET efficiency. This ratio was expressed in two formulas described below: NormalizedΔR=R(mTFP/Venus)/R(mTFP/Venus)min
With the aim of testing if this observation occurs in general and if azide induced-lactate accumulation can be reproduced using another mitochondrial toxicant with a different molecular target, we performed single-cell experiments exposing primary culture of astrocytes from the mouse cortex expressing Laconic (Fig 1A) to different mitochondria inhibitors that block the ETC at different levels (Fig 1C). To take advantage of the maximal dynamic range of the lactate FRET sensor the baseline measurements were performed using buffer without carbon sources to force start the experiments with lactate levels below 100 μM.
Each data point is from an average of ten cells from three independent experiments.

[6] = system: MDA-MB-231 cells stably expressing the FRET lactate indicator Laconic (MitoTox Reporter); experiment: MitoToxy assay: toxicity-induced lactate accumulation in MitoTox Reporter cells, 96-well plate reader, with 50 μM pCMBS; assay type: cell-based; conditions: read-out: IC50 (toxicity-induced lactate accumulation, MitoToxy)
Description: as §1, §2

[7] = system: MitoTox reporter cells; conditions: 32 μM rotenone, 16 μM antimycin, 5 mM azide, 80 μM oligomycin, 10 μM myxothiazol; 5, 10, 30, 60 minutes; 37°C
Description: as §1, with “Experiments consisted in washing out the culture media using KRH HEPES buffer containing (mM) 136 NaCl, 3 KCl, 1.25 CaCl2, 1.25 MgCl2, 10 HEPES/Tris and pH 7.2 at 37°C with 300 mOsm.” left out, “In experiments were pCMBS was used to block lactate exit, the inhibitor was added simultaneously with the mitochondrial toxicants. Data was collected in triplicated after 5, 10, 30, and 60 minutes of incubation.” left out, “filters. […]” for “filters.”

| Structure (SMILES) | ΔR% (lactate accumulation) ([1]; 5 μM) | ΔR% (lactate accumulation) ([1]; 10 μM) | Concentration at which toxicity / mitochondrial effects were detected in the pilot screening ([1]; tested at 1, 5 and 10 μM) [µM] | EC50 [2] [µM] | IC50 [3] | IC50 [4] [µM] | Cytosolic lactate accumulation in astrocytes [5] | IC50 [6] [µM] | Lactate accumulation (ΔR%) in 96-well plates without pCMBS [7] |
| --- | --- | --- | --- | --- | --- | --- | --- | --- | --- |
| Cc1c(C)c2c(c(C)c1O)CCC(C)(COc1ccc(CC3SC(=O)NC3=O)cc1)O2 (stereo not drawn) [troglitazone] | The effect was also detected | over 14% | 5 | > 100 | 28 µM and 31.4 µM | 176 | – | – | – |
| [N-]=[N+]=[N-].[Na+] [azide] | – | – | – | – | – | – | induced an acute cytosolic lactate accumulation | 1440 | declined after 5 minutes |
